Reference: US20240400584A1, “COMPOUNDS AND METHODS FOR MODULATING SPLICING” (REMIX THERAPEUTICS INC., priority 2021, published 2024)

Legend:
[1] = test system: Target C; assay: Gene panel canonical junction qPCR assay, Target C CJ mRNA (Table 7); type: cell-based, human; settings: Homo sapiens, read-out: Target C CJ mRNA decrease IC50
Method in brief: (§1)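 A673/K562 cells + cpd → lysate → cDNA → qPCR, CY5 5′ nuclease probe set overlapping canonical junction. Normalized to GAPDH/GUSB/PPIA and DMSO via ΔΔCt, RQ → % response over fixed ΔCt window. IC50 = 50% CJ decrease, 4PL fit.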

[2] = test system: SMN2; assay: Gene panel canonical junction qPCR assay, SMN2 CJ mRNA (Table 7); type: cell-based; settings: Homo sapiens, read-out: SMN2 CJ mRNA decrease IC50
Method in brief: as §1

[3] = test system: HTT; assay: RT-qPCR splicing assay, HTT AJ/CJ mRNA; type: cell-based, human; settings: Homo sapiens, 24 h, A673 or K562 cells; for IC50: decrease in canonical junction mRNA; for AC50: increase in alternative junction mRNA
Method in brief: (§2)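 Splicing switch scored as change in CJ and AJ isoform levels, by RT-qPCR on lysates of A673 or K562 cells dosed 24 h (top concentration 10 uM, DMSO at most 0.25%). ΔΔCt relative to DMSO wells was converted to RQ and then to percentage response.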

[4] = test system: MYB; assay: Gene panel canonical junction qPCR assay, MYB CJ mRNA (Table 7); type: cell-based; settings: Homo sapiens, read-out: MYB CJ mRNA decrease IC50
Method in brief: as §1

[5] = test system: HTT; assay: Gene panel canonical junction qPCR assay, HTT CJ mRNA (Table 7); type: cell-based, human; settings: Homo sapiens, read-out: HTT CJ mRNA decrease IC50
Method in brief: as §1

[6] = test system: MYB; assay: RT-qPCR splicing assay, MYB AJ/CJ mRNA; type: cell-based; settings: Homo sapiens, A673 or K562 cells, 24 hours; for IC50: decrease in canonical junction mRNA; for AC50: increase in alternative junction mRNA
Method in brief: as §2

IC50 [1] [µM]	IC50 [2] [µM]	IC50 [3] [µM]	IC50 [4] [µM]	IC50 [5] [µM]	IC50 [6] [µM]	SMILES	AC50 [3] [µM]	AC50 [6] [µM]
1 to 10	0.1 to 1	0.1 to 1	1 to 10	0.1 to 1	1 to 10	COc1cc(-c2ccc3c(c2)COc2nc(OC4CC(C)(C)NC(C)(C)C4)ncc2-3)cnn1 [Compound 299]	0.1 to 1	1 to 10
0.1 to 1	< 0.1	< 0.1	0.1 to 1	< 0.1	0.1 to 1	CC1(C)CC(Oc2ccc3c(n2)OCc2cc(-c4cn[nH]c4)c(F)cc2-3)CC(C)(C)N1 [Compound 234]	< 0.1	0.1 to 1
> 10	> 10	> 10	> 10	> 10	> 10	CN1CCCC2(CCN2c2ccc3c(n2)OCc2cc(-c4cn[nH]c4)ccc2-3)C1 (stereo not drawn) [Compound 222, 6-methyl-1-[8-(1H-pyrazol-4-yl)-6H-isochromeno[3,4-b]pyridin-3-yl]-1,6-diazaspiro[3.5]nonane]	> 10	> 10
> 10	0.1 to 1	1 to 10	> 10	1 to 10	> 10	Cc1cc(-c2ccc3c(c2)COc2nc(N4CC[C@@H](NC(C)(C)C)C4)ccc2-3)cnn1 (single isomer, unassigned) [Compound 274, N-tert-butyl-1-[8-(6-methylpyridazin-4-yl)-6H-isochromeno[3,4-b]379yrrolid-3-yl]379yrrolidine-3-amine]	> 10	> 10
1 to 10	0.1 to 1	1 to 10	1 to 10	1 to 10	1 to 10	CC1(C)CC(Oc2ccc3c(n2)OCc2cc(-n4cccn4)ccc2-3)CC(C)(C)N1 [Compound 171]	1 to 10	1 to 10
< 0.1	< 0.1	< 0.1	0.1 to 1	< 0.1	0.1 to 1	COc1cc(-c2ccc3c(c2)COc2nc(N4CCC(NC(C)(C)C)C4)ccc2-3)cnn1 (stereo not drawn) [Compound 251, N-tert-butyl-1-[8-(6-methoxypyridazin-4-yl)-6H-isochromeno[3,4-b]pyridin-3-yl]pyrrolidin-3-amine]	< 0.1	0.1 to 1
1 to 10	0.1 to 1	0.1 to 1	1 to 10	0.1 to 1	1 to 10	c1cc2c(cc1-c1cn[nH]c1)COc1nc(N3CCC4(CCN4)C3)ccc1-2 (stereo not drawn) [Compound 217, 6-[8-(1H-pyrazol-4-yl)-6H-isochromeno[3,4-b]pyridin-3-yl]-1,6-diazaspiro[3.4]octane]	1 to 10	> 10
1 to 10	1 to 10	> 10	> 10	> 10	> 10	COc1cnnc(-c2ccc3c(c2)COc2nc(N4CCC(NC(C)(C)C)C4)ccc2-3)c1 (stereo not drawn) [Compound 292]	> 10	> 10
0.1 to 1	0.1 to 1	0.1 to 1	0.1 to 1	0.1 to 1	0.1 to 1	COc1cc(-c2cc3c(cc2F)-c2ccc(OC4CC(C)(C)NC(C)(C)C4)nc2OC3)cnn1 [Compound 244]	< 0.1	0.1 to 1
0.1 to 1	< 0.1	< 0.1	0.1 to 1	< 0.1	0.1 to 1	COc1cc(-c2ccc3c(c2)COc2nc(OC4CC(C)(C)NC(C)(C)C4)ccc2-3)cnn1 [Compound 226, 3-methoxy-5-{3-[(2,2,6,6-tetramethylpiperidin-4-yl)oxy]-6H-isochromeno[3,4-b]pyridin-8-yl}pyridazine]	< 0.1	> 10
0.1 to 1	< 0.1	0.1 to 1	0.1 to 1	0.1 to 1	0.1 to 1	CC1(NC2CCN(c3ccc4c(n3)OCc3cc(-c5cn[nH]c5)ccc3-4)C2)CC1 (stereo not drawn) [Compound 253, N-(1-methylcyclopropyl)-1-[8-(1H-pyrazol-4-yl)-6H-isochromeno[3,4-b]pyridin-3-yl]pyrrolidin-3-amine]	< 0.1	0.1 to 1

Second part, the compound before the results:

SMILES	IC50 [1] [µM]	IC50 [2] [µM]	IC50 [3] [µM]	IC50 [4] [µM]	IC50 [5] [µM]	IC50 [6] [µM]	AC50 [3] [µM]	AC50 [6] [µM]
COc1cc(-c2ccc3c(c2F)COc2nc(N(C)[C@@H]4C[C@H]5CC[C@@H](C4)N5)ccc2-3)cnn1 [Compound 245, N-((1R,3s,5S)-8-azabicyclo[3.2.1]octan-3-yl)-7-fluoro-8-(6-methoxypyridazin-4-yl)-N-methyl-6H-isoch-romeno[3,4-b]pyridin-3-amine]	< 0.1	< 0.1	< 0.1	< 0.1	< 0.1	< 0.1	< 0.1	< 0.1
FC1(F)CC2CC(Oc3ccc4c(n3)OCc3cc(-n5nccn5)ccc3-4)CC1N2 (stereo not drawn) [Compound 235, 6,6-difluoro-3-{[8-(1,2,3-triazol-2-yl)-6H-isochromeno[3,4-b]pyridin-3-yl]oxy}-8-azabicyclo[3.2.1]octane]	1 to 10	> 10	> 10	> 10	> 10	> 10	> 10	> 10
c1cnn(-c2ccc3c(c2)COc2nc(N4CCC5(CC4)CNC5)ccc2-3)c1 [Compound 169]	0.1 to 1	0.1 to 1	0.1 to 1	0.1 to 1	0.1 to 1	0.1 to 1	0.1 to 1	0.1 to 1
C[C@]12CC[C@](C)(C[C@@H](Oc3ccc4c(n3)OCc3cc(-n5cccn5)ccc3-4)C1)N2 [Compound 228]	1 to 10	0.1 to 1	0.1 to 1	1 to 10	0.1 to 1	1 to 10	1 to 10	1 to 10
c1cnn(-c2ccc3c(c2)COc2nc(N(C4CCNCC4)C4CC4)ccc2-3)c1 [Compound 202]	> 10	> 10	1 to 10	1 to 10	1 to 10	1 to 10	> 10	> 10
c1cnn(-c2ccc3c(c2)OCCc2nc(N[C@@H]4C[C@H]5CC[C@@H](C4)N5)ccc2-3)c1 [Compound 136]	> 10	> 10	> 10	> 10	> 10	> 10	> 10	> 10
COc1cc(-c2cc3c(cc2F)-c2ccc(O[C@@H]4C[C@H]5CC[C@@H](C4)N5)nc2OC3)cnn1 [Compound 243]	0.1 to 1	< 0.1	< 0.1	0.1 to 1	< 0.1	0.1 to 1	< 0.1	0.1 to 1
c1cnn(-c2ccc3c(c2)COc2nc(N4CC5(CCNCC5)C4)ccc2-3)c1 [Compound 167]	> 10	> 10	> 10	> 10	> 10	> 10	> 10	> 10
COc1cc(-c2ccc3c(c2)COc2nc(OC4CC5CC(F)(F)C(C4)N5)ccc2-3)cnn1 (stereo not drawn) [Compound 225, 6,6-difluoro-3-{[8-(6-methoxypyridazin-4-yl)-6H-isochromeno[3,4-b]pyridin-3-yl]oxy}-8-azabicyclo[3.2.1]octane]	> 10	1 to 10	0.1 to 1	> 10	0.1 to 1	> 10	1 to 10	> 10
[2H]C([2H])([2H])N(c1ccc2c(n1)OCc1cc(-n3cccn3)ccc1-2)C1CC(C)(C)NC(C)(C)C1 [Compound 199]	> 10	1 to 10	1 to 10	> 10	1 to 10	> 10	1 to 10	> 10
c1cnn(-c2ccc3c(c2)COc2nc(O[C@@H]4C[C@H]5CCC[C@@H](C4)N5)ccc2-3)c1 [Compound 198]	1 to 10	0.1 to 1	0.1 to 1	0.1 to 1	0.1 to 1	0.1 to 1	0.1 to 1	0.1 to 1
[2H]C([2H])([2H])N(c1ccc2c(n1)OCc1cc(-n3cccn3)ccc1-2)C1CCNCC1 [Compound 176]	> 10	1 to 10	1 to 10	> 10	1 to 10	> 10	1 to 10	> 10
FC1(F)CC2CC(Oc3ccc4c(n3)OCc3cc(-c5cn[nH]c5)ccc3-4)CC1N2 (stereo not drawn) [Compound 224, 6,6-difluoro-3-{[8-(1H-pyrazol-4-yl)-6H-isochromeno[3,4-b]pyridin-3-yl]oxy}-8-azabicyclo[3.2.1]octane]	> 10	1 to 10	1 to 10	> 10	1 to 10	> 10	1 to 10	> 10
